Data from the NIST ThermoML archive (doi:10.1016/j.jct.2005.10.004).
Several values for one entry are separate records, joined by “and”; a condition that tells them apart may be missing. Equal values may be shown once. Numbers after ± are expanded uncertainties.

Conditions: Liquid, Buoyancy - hydrostatic balance with magnetic suspension - one sinker

N#N [nitrogen]
mass density (249.96 K, 5023.9 kPa): 69.8983 ± 0.016 kg/m3 | mass density (249.96 K, 5024.2 kPa): 69.9018 ± 0.016 kg/m3 | mass density (249.96 K, 10070 kPa): 141.612 ± 0.031 kg/m3 | mass density (249.96 K, 15267 kPa): 211.548 ± 0.045 kg/m3 | mass density (249.96 K, 15270 kPa): 211.579 ± 0.045 kg/m3 and 211.588 ± 0.045 kg/m3 | mass density (249.96 K, 19857 kPa): 266.561 ± 0.056 kg/m3 | mass density (250 K, 4994.5 kPa): 69.4686 ± 0.016 kg/m3 | mass density (274.97 K, 10066 kPa): 125.016 ± 0.027 kg/m3 and 125.014 ± 0.027 kg/m3 | mass density (274.97 K, 19871 kPa): 235.319 ± 0.05 kg/m3 | mass density (274.97 K, 19875 kPa): 235.358 ± 0.05 kg/m3 | mass density (299.97 K, 10974 kPa): 122.253 ± 0.027 kg/m3 | mass density (299.97 K, 13855 kPa): 152.56 ± 0.034 kg/m3 and 152.561 ± 0.034 kg/m3 | mass density (299.97 K, 16780 kPa): 181.982 ± 0.04 kg/m3 | mass density (299.98 K, 16788 kPa): 182.05 ± 0.04 kg/m3 | mass density (399.99 K, 10101 kPa): 81.9701 ± 0.018 kg/m3 | mass density (399.99 K, 14807 kPa): 117.441 ± 0.025 kg/m3 | mass density (399.99 K, 17250 kPa): 135.043 ± 0.029 kg/m3 | mass density (400 K, 7435.4 kPa): 61.0376 ± 0.014 kg/m3 | mass density (400 K, 10100 kPa): 81.9663 ± 0.018 kg/m3 | mass density (400 K, 19953 kPa): 153.853 ± 0.033 kg/m3 | mass density (400 K, 19959 kPa): 153.899 ± 0.033 kg/m3
